Several values for one entry are separate records, joined by “and”; a condition that tells them apart may be missing. Identical values can stand only once. Activity calls are given as the source filed them.
Experiments:
Cytochrome P450 3A4 = Cytochrome P450 3A4 (Homo sapiens, UniProt P08684); conditions: Potency;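 also: confirmatory qHTS run detecting inhibitors and substrates of CYP3A4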
Hexokinase = target: T1, Hexokinase (Trypanosoma brucei, UniProt Q38C41); assay: Confirmation assay for inhibitors of Trypanosoma brucei hexokinase 1-Analogue-first series. [Related pubchem assays (depositor defined):AID1430, AID1632, AID2516, AID2560, AID2579, AID2600, AID449725, AID492951]; assay type: functional
T1 sequence (Q38C41 whole entry): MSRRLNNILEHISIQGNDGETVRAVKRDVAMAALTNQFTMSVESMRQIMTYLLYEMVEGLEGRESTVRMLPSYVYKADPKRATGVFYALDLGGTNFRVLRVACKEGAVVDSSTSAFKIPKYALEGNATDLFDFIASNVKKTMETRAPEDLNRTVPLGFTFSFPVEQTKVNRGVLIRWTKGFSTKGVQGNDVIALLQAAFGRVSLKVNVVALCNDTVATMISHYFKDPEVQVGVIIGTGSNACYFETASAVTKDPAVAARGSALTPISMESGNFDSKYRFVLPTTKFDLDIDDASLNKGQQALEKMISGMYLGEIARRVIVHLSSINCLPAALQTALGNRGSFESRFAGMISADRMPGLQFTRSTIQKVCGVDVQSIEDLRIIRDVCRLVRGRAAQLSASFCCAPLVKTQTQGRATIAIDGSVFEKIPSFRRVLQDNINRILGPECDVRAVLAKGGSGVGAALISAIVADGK

[1] = target: T2, Mannose-6-phosphate isomerase (Homo sapiens, UniProt P34949); assay: PMI enzyme inhibitors, confirmation, biochemical, fluorescence intensity (AID 1535)
T2 sequence (P34949 whole entry): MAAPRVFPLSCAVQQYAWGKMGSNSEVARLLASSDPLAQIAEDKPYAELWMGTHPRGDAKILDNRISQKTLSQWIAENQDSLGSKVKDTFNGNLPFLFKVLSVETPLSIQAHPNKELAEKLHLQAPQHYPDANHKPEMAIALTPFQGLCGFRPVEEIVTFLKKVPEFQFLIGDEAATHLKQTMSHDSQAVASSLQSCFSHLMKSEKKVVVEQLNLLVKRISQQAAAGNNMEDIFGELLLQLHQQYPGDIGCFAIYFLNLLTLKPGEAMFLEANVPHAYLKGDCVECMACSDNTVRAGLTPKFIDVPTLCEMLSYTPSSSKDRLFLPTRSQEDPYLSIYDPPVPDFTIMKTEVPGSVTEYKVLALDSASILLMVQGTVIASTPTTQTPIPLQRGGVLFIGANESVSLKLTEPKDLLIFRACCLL

Phosphomannomutase 2 = target: T3, Phosphomannomutase 2 (Homo sapiens, UniProt O15305); assay: Counter screen SAR assay for PMM2 inhibitors via a fluorescence intensity assay. [Related pubchem assays (depositor defined):AID1545, AID1574]
T3 sequence (O15305 whole entry): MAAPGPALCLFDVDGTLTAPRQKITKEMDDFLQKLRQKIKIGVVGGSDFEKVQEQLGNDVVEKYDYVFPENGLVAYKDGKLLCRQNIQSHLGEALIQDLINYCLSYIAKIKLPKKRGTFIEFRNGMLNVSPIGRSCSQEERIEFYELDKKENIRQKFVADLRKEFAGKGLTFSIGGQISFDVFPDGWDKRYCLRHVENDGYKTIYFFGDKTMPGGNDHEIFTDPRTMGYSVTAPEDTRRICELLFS

[2] = target: DNA dC->dU-editing enzyme APOBEC-3A (Homo sapiens, UniProt P31941); assay: Dose Response confirmation of small molecule APOBEC3A DNA Deaminase Inhibitors via a fluorescence-based single-stranded DNA deaminase assay. [Related pubchem assays (depositor defined):AID493011, AID493024]; assay type: functional
[3] = target: DNA dC->dU-editing enzyme APOBEC-3G (Homo sapiens, UniProt Q9HC16); assay type: functional;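 also: Dose-response counterscreen measuring inhibition of APOBEC3G DNA deaminase activity, run while confirming APOBEC3A inhibitors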
Coagulation factor XII = target: T4, Coagulation factor XII (Homo sapiens, UniProt P00748); assay type: functional;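 also: activated factor XIIa alpha cleaving a fluorogenic AMC peptide substrate; inhibitor potency from loss of enzyme activity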
T4 sequence (P00748 whole entry): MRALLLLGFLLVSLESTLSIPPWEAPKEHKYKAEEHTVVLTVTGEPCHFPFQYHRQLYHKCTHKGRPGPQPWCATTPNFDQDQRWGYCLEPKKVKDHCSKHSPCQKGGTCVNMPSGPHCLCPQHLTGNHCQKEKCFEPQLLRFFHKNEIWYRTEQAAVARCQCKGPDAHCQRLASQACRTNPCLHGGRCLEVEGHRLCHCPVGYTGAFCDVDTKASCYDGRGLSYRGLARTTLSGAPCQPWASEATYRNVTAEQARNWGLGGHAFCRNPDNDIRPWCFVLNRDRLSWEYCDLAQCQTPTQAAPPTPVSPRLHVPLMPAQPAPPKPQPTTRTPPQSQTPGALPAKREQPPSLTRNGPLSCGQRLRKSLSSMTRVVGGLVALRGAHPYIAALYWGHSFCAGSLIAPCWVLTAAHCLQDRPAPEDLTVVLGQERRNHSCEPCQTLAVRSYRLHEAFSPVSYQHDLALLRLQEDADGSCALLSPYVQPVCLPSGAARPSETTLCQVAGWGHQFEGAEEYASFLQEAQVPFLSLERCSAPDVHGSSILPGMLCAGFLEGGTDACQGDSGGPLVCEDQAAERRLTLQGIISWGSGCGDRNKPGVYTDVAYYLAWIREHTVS

[4] = THP-1 cell cytotoxicity, dose response, cytotoxicity control for non-replicating M. tuberculosis project (AID 489025); assay type: functional
cells = assay type: functional
[5] = cytotoxicity in HEK-293T cells, dose response, cytotoxicity control for BCR NF-kB inhibitor project, luminescence, B-cell screen hits (AID 489021); assay type: functional, cell-based;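 also: HEK-293T cells carrying an NF-kB luciferase reporter; cells exposed to compound for about 14 hours before viability readout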
Aminopeptidase N = target: T5, Aminopeptidase N (Plasmodium falciparum FcB1/Columbia, UniProt O96935); assay: P. falciparum M1AAP inhibitors, biochemical, fluorogenic H-Leu-NHMec substrate, 1536-well (AID 1445); parameters: species or system Plasmodium falciparum 3D7, 3D7
T5 sequence (O96935 whole entry): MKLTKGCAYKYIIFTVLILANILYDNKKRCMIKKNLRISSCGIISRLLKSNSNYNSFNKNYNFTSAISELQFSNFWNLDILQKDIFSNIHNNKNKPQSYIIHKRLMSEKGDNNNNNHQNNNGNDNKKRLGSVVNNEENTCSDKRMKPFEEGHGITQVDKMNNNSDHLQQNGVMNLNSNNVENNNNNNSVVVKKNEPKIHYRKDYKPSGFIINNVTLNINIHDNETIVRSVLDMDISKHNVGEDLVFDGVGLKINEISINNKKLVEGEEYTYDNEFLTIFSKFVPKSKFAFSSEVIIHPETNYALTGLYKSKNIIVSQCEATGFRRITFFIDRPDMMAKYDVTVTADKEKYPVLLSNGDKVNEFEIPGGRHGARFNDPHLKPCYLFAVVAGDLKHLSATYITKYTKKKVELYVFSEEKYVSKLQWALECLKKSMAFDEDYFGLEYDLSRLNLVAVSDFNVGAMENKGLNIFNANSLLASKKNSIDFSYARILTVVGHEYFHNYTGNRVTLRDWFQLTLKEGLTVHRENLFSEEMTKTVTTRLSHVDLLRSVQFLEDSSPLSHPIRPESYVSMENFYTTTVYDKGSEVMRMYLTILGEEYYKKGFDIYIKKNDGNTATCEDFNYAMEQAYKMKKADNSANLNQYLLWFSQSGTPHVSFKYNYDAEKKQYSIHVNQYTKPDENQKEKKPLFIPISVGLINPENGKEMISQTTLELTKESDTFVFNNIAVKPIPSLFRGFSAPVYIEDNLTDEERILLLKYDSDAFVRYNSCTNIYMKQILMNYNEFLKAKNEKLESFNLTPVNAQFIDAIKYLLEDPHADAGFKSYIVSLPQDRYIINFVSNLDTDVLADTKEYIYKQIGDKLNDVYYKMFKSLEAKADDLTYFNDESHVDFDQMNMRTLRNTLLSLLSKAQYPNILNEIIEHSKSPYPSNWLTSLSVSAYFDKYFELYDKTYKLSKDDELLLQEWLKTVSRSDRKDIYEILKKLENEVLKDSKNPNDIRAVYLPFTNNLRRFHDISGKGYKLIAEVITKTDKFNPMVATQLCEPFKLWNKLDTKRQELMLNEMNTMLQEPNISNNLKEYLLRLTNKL

Large T antigen = Large T antigen (Simian virus 40, UniProt P03070); assay type: functional, Betapolyomavirus macacae;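 also: Confirmatory-stage PubChem screen for compounds that inhibit SV40 T antigen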
[6] = target: Glucose-6-phosphate 1-dehydrogenase (Homo sapiens, UniProt P11413); assay: human G6PD enzyme inhibitors, dose response, selectivity assay for P. falciparum G6PD inhibitor project, biochemical, fluorescence (AID 504792); assay type: functional
[7] = target: T6, Voltage-gated N-type calcium channel alpha-1B subunit/Amyloid beta A4 precursor protein-binding family A member 1 (Homo sapiens, UniProt Q00975+Q02410); assay type: protein assay
[8] = target: T6, Voltage-gated N-type calcium channel alpha-1B subunit/Amyloid beta A4 precursor protein-binding family A member 1; assay type: protein assay; remark: listed apart in the source
Troponin, cardiac muscle = Troponin, cardiac muscle (Homo sapiens, UniProt P19429+P45379+P63316); assay: Fluorescence-based biochemical high throughput dose response assay for activators of the calcium sensitivity of cardiac Regulated Thin Filaments (RTF). [Related pubchem assays (depositor defined):AID493008, AID493018, AID504382, AID504383]; assay type: protein-complex assay
[9] = target: Alkaline phosphatase, placental type (Homo sapiens, UniProt P05187); assay: PLAP enzyme inhibitors, confirmation, biochemical, luminescence (AID 1512); assay type: functional
[10] = target: T7, Alkaline phosphatase, tissue-nonspecific isozyme (Homo sapiens, UniProt P05186); assay: human TNAP enzyme inhibitors, SAR follow-up, biochemical, luminescent, dose response (AID 1056)
T7 sequence (P05186 whole entry): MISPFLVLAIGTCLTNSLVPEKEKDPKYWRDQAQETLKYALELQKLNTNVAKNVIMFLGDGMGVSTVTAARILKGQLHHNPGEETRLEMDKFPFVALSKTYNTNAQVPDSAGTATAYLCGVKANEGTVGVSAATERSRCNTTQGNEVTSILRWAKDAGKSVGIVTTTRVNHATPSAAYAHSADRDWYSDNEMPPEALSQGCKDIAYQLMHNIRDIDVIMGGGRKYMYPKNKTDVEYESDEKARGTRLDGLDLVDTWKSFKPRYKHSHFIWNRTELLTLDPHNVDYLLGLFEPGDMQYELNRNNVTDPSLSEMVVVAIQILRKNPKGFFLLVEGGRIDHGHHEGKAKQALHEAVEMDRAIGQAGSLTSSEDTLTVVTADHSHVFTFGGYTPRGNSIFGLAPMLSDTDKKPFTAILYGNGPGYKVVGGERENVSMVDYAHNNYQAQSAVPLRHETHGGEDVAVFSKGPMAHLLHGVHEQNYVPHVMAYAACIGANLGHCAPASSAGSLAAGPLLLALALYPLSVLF

Chain of Cytochrome P450 3A4 (P08684 whole entry): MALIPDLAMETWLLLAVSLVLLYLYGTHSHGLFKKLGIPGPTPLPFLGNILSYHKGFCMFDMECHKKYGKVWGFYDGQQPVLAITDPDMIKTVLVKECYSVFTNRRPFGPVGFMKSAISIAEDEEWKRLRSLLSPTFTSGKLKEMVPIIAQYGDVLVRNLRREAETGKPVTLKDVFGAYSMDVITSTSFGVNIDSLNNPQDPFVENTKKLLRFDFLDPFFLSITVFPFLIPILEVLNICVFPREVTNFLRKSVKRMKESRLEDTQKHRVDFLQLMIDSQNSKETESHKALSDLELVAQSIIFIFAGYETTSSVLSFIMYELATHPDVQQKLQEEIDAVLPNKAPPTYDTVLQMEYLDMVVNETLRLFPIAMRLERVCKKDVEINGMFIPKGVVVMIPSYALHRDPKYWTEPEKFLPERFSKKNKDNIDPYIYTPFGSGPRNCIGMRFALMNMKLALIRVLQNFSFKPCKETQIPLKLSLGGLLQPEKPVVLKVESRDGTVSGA
T6 sequence (Q00975 whole entry): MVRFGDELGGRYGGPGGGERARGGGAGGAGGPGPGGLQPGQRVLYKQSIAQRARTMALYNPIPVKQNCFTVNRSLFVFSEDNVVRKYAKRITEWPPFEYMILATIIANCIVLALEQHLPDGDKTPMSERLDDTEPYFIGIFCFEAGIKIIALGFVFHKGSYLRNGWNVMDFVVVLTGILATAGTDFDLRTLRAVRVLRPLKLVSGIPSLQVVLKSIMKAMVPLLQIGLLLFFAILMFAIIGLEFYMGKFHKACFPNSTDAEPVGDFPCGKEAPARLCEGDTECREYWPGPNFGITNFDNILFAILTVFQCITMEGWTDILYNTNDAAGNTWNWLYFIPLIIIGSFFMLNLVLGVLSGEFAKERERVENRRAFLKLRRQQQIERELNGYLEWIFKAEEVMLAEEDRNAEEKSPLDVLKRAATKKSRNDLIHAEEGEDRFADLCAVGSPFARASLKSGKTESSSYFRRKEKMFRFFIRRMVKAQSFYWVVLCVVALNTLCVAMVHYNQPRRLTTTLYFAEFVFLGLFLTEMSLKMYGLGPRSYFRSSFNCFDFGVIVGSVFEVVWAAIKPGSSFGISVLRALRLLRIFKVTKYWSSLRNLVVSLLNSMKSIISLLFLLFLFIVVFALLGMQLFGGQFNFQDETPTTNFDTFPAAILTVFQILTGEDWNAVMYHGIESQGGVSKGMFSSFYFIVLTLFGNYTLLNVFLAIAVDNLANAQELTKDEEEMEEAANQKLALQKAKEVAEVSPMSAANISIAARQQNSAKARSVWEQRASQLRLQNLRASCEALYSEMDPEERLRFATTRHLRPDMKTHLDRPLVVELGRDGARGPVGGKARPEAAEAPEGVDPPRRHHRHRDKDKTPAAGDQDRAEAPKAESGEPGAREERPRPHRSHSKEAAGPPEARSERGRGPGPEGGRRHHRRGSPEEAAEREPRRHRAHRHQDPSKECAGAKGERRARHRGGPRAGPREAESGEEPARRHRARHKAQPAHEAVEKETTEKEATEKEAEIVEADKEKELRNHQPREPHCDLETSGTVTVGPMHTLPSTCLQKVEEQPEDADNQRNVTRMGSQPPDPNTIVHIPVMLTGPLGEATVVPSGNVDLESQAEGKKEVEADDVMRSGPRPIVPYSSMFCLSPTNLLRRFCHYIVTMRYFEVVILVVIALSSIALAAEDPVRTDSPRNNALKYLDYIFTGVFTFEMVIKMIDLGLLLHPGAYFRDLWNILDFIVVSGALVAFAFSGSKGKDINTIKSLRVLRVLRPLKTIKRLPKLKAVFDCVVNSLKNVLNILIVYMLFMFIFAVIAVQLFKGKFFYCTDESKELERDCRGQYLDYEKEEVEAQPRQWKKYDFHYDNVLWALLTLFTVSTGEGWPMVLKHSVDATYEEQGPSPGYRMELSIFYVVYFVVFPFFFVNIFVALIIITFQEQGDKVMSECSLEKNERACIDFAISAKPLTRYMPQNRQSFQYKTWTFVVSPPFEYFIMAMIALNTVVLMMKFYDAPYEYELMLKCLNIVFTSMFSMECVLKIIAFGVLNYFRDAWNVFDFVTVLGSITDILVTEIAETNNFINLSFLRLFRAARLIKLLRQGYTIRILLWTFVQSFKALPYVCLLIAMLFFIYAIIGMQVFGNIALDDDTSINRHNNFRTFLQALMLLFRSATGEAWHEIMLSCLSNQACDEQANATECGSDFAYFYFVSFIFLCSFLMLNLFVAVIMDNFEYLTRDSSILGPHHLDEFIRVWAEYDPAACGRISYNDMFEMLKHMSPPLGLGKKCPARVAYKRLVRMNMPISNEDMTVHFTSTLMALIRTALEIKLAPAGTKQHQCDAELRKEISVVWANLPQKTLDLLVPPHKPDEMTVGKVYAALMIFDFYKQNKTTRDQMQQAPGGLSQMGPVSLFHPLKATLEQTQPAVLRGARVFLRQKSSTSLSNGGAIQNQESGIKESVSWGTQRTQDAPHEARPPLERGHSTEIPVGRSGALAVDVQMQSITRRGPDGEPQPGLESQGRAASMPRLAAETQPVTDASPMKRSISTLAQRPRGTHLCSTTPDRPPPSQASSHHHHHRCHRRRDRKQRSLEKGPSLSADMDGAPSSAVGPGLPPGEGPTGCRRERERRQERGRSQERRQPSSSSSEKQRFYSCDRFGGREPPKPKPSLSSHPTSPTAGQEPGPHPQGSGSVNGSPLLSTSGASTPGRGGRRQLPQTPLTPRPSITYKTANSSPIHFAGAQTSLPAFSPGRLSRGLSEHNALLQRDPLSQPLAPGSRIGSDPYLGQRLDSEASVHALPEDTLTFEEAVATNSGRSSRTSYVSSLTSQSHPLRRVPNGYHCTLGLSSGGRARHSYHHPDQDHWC
T6 sequence (Q02410 whole entry): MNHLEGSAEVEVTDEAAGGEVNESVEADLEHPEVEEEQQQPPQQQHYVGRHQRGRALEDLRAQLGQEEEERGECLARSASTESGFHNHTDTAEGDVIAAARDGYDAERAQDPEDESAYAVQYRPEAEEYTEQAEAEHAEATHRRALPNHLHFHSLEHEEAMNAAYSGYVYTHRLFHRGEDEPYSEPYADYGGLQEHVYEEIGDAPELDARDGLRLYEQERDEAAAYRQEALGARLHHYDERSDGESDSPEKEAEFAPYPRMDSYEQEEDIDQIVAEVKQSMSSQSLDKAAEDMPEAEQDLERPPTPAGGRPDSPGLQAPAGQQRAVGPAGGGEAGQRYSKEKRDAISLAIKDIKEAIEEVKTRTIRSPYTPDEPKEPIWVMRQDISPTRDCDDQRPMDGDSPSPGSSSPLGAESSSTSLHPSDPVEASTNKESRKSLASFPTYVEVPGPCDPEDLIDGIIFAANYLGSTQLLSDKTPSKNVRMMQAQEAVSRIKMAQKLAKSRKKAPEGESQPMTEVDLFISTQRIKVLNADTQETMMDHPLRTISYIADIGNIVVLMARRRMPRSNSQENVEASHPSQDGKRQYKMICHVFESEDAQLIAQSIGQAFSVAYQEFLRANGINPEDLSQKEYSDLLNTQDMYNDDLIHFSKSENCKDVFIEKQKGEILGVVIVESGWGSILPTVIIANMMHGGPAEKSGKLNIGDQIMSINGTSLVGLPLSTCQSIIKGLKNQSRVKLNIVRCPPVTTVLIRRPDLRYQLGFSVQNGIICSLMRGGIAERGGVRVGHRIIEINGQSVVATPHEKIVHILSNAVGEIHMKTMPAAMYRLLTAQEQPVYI
Chain of Glucose-6-phosphate 1-dehydrogenase (P11413 whole entry): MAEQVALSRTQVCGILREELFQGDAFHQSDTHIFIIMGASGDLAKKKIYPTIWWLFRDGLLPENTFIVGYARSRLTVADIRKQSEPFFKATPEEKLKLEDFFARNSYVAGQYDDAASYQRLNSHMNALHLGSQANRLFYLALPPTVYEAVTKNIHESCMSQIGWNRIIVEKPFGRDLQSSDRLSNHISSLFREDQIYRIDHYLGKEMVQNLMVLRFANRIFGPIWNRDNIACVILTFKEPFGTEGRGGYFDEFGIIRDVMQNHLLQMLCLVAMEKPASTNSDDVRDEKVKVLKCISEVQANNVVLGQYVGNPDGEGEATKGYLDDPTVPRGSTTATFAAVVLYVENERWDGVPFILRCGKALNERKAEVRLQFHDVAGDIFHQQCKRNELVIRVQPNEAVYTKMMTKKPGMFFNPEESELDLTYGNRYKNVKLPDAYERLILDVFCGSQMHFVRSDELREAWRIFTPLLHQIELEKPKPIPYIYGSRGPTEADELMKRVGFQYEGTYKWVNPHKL
Chain of Large T antigen (P03070 whole entry): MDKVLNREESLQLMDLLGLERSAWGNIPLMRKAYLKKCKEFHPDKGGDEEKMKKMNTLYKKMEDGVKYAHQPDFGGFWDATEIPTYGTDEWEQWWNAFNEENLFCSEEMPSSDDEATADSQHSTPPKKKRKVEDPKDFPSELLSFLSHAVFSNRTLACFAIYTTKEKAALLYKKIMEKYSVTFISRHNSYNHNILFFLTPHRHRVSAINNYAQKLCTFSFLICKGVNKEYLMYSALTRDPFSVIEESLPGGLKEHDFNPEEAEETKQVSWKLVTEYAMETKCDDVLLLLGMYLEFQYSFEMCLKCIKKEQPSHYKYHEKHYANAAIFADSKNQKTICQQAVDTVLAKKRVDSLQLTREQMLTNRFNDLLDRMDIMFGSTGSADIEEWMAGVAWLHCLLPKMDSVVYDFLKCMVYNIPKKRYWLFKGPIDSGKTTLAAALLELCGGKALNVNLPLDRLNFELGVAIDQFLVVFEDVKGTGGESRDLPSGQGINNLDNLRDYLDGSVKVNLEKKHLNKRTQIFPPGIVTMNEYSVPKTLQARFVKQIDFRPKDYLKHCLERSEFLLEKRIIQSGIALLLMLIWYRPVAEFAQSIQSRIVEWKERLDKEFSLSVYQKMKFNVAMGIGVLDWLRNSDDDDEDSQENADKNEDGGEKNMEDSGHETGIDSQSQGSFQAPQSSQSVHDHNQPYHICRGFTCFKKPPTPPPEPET
Chain of DNA dC->dU-editing enzyme APOBEC-3A (P31941 whole entry): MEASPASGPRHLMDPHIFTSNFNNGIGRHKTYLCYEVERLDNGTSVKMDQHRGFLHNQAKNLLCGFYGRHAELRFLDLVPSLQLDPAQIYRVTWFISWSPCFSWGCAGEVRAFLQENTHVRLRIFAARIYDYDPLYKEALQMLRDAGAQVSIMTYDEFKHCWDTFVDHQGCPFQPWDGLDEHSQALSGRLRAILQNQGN

## O=c1cc(-c2ccccc2)oc2cccc(O)c12 [5-HYDROXYFLAVONE]
Cytochrome P450 3A4
  AC50: 6.31 µM (inconclusive) and 20 µM (inconclusive)

## COc1ccc(C(=O)Nc2cc(Cl)ccc2C#N)cc1
Hexokinase
  IC50: > 25 µM (inactive)

## O=c1c2ccccc2sn1-c1ccccc1Cl
Hexokinase
  IC50: 1.97 µM (active)

## O=c1c2ccccc2sn1-c1ncc([N+](=O)[O-])s1
[1]
  IC50: 22.7 µM (active)
Phosphomannomutase 2
  IC50: > 100 µM (inactive)

## N#Cc1cccc(NC(=O)C[n+]2c3n(c4ccc(C(F)(F)F)cc42)CCCCC3)c1
[2]
  IC50: 1.97 µM (active)
[3]
  IC50: 2.75 µM (active)

## COc1ccc(N2C(=O)c3ccc(Cl)cc3C2=O)cc1
Hexokinase
  IC50: > 25 µM (inactive)

## O=S(=O)(c1ccc(S(=O)(=O)N2CCCC2)cc1)N1CCCCCC1
Coagulation factor XII
  IC50: > 50 µM (inactive)

## O=C(OCC(=O)N1CCN(c2ccccc2)CC1)c1cnc(Cl)c(Cl)c1
[4]
  CC50: 34.2 µM (active)
cells
  IC50: 3.69 µM (active)

## COc1ccc(N2C(=O)CC(Nc3cccc([N+](=O)[O-])c3)C2=O)cc1 (configuration not stated)
Coagulation factor XII
  IC50: > 50 µM (inactive)

## Cc1cc2n(n1)SC(Nc1cc(Cl)ccc1Cl)N2 (configuration not stated)
[1]
  IC50: > 50 µM (inactive)
Phosphomannomutase 2
  IC50: > 100 µM (inactive)

## CC(C)C[C@@H](N)c1nnc(SCC(=O)c2ccc(Cl)cc2)o1
[5]
  IC50: > 80 µM (inactive)

## CCC(=O)OCC(=O)C1(OC(=O)CC)C(C)CC2C3CCC4=CC(=O)C=CC4(C)C3(Cl)C(O)CC21C (configuration not stated)
Cytochrome P450 3A4
  AC50: 12.6 µM (inconclusive)

## Cn1c(=O)cc(OCCCC(=O)N2CCCCC2)c2ccccc21
[5]
  IC50: > 80 µM (inactive)

## N=C1/C(=C\c2coc3ccc(O)cc3c2=O)C(=O)N=C2SC=CN12
Aminopeptidase N
  IC50: 57.6 µM (active)
Large T antigen
  IC50: 15.8 µM (active)

## COc1cc(C(=O)O/N=C2\C=CC(=O)C=C2C)cc(OC)c1OC
[6]
  IC50: > 80 µM (inactive)
Coagulation factor XII
  IC50: 10.3 µM (active)

## CCOC(=O)c1cc(-c2cccc([N+](=O)[O-])c2)nc2[nH]c(=O)[nH]c(=O)c12
Aminopeptidase N
  IC50: 7.44 µM (active)

## C#CCCCCCCCCCCCC(O)CC(O)CO (configuration not stated) [AVOCADYNE]
Cytochrome P450 3A4
  AC50: 39.8 µM (inconclusive)

## CN1C(=O)C(=C/C=C/Nc2ccccc2)C(=O)N(C)C1=S
[7]
  IC50: 6.18 µM (active)
[8]
  IC50: > 50 µM (inactive)

## O=C(O)c1cc(NCc2ccc(F)cc2)ccc1N1CCOCC1
Troponin, cardiac muscle
  EC50: > 71.5 µM (inactive)

## CCCCc1cc(=O)oc2c(CN(C)C)c(O)c(Cl)cc12
Aminopeptidase N
  IC50: 27.3 µM (active)

## CC(=O)Nc1ccc(OC(=O)c2cc3cc(Br)ccc3oc2=O)cc1
[7]
  IC50: 2 µM (active)
[8]
  IC50: > 50 µM (inactive)

## Cc1ccc(-c2nnc(SCC(=O)c3ccc(O)c(O)c3)n2-c2ccccc2)cc1
[9]
  IC50: > 100 µM (inactive)
[10]
  IC50: > 100 µM (inactive)

## CC1(C)CC(=O)C=C(Nc2ccccc2N)C1
Troponin, cardiac muscle
  EC50: > 71.5 µM (inactive)
